We go through one molecule from article PMC6450887, “Metabolic resistance of the D-peptide RD2 developed for direct elimination of amyloid-β oligomers” (Scientific Reports, 2019).

Structures are written as SMILES. Non-standard residues stand in square brackets, D forms with d. Residues, ends and D or L forms follow the SMILES beside them.

Usually amount remaining stands for the share of the starting amount still present when the sample was taken. A word on the half-life: it is the time needed for the level to fall by half in the phase considered. The term inhibition denotes the relative decrease from the control value, in per cent.

The nature of series [1]: Stability in simulated gastric fluid (SGF), RP-HPLC. Type of series: in vitro ADME. Particulars: 37 °C, read-out: unmetabolized peptide remaining (remained stable). As for the experimental part:
The preparation of the media was performed as described before in Elfgen et al.[24]. Preparation of simulated gastric and intestinal fluid (SGF & SIF) was done according to the European Pharmacopoeia 7.0. Plasma samples were obtained from human blood of a volunteer donor. Pooled human liver microsomes were purchased from Sekisui XenoTech (Kansas City, USA; H1000, Lot: 0710494 and 1210270; H1500, Lot: 1210079), from Sigma-Aldrich (St. Louis, USA; M0692, Lot: SLBL1433V; M0567, Lot: SLBR2706V and SLBN7300V) and from Gibco, Thermo Fisher Scientific (Waltham, USA; HMMCPL, Lot: PL050; HMMCPM, Lot: PL039). Pooled Sprague Dawley rat liver microsomes were purchased from Sigma-Aldrich (St. Louis, USA; M9066, Lot: SLBN0707V) and from Gibco, Thermo Fisher Scientific (Waltham, USA; RTMCPL, Lot: RT053). Pooled cynomolgus monkey liver microsomes were purchased from Gibco, Thermo Fisher Scientific (Waltham, USA; MKMCPL, Lot: MK062) and from Sekisui XenoTech (Kansas City, USA; P2000, Lot: 1210334). […]
(§1) For sample analysis from stability tests (see 2.3), mobile phases were acetonitrile (A) and water (B) each supplemented with 0.15% trifluoroacetic acid (TFA) (v/v). The samples were measured isocratically at 10% solvent A for 30 min. […] A chromatographic metabolite profile of L-RD2 in SIF was recorded with the same mobile phases but using a gradient from 0 to 30% solvent A in 30 min.

Series [2] is described as follows: Stability in simulated intestinal fluid (SIF), RP-HPLC. Type of series: in vitro ADME. Particulars: simulated intestinal fluid (SIF), 150 µM, 37 °C, 24 h, read-out: unmetabolized peptide remaining (remained stable). The procedure:
(§2) The preparation of the media was performed as described before in Elfgen et al.[24]. Preparation of simulated gastric and intestinal fluid (SGF & SIF) was done according to the European Pharmacopoeia 7.0. Plasma samples were obtained from human blood of a volunteer donor. Pooled human liver microsomes were purchased from Sekisui XenoTech (Kansas City, USA; H1000, Lot: 0710494 and 1210270; H1500, Lot: 1210079), from Sigma-Aldrich (St. Louis, USA; M0692, Lot: SLBL1433V; M0567, Lot: SLBR2706V and SLBN7300V) and from Gibco, Thermo Fisher Scientific (Waltham, USA; HMMCPL, Lot: PL050; HMMCPM, Lot: PL039). Pooled Sprague Dawley rat liver microsomes were purchased from Sigma-Aldrich (St. Louis, USA; M9066, Lot: SLBN0707V) and from Gibco, Thermo Fisher Scientific (Waltham, USA; RTMCPL, Lot: RT053). Pooled cynomolgus monkey liver microsomes were purchased from Gibco, Thermo Fisher Scientific (Waltham, USA; MKMCPL, Lot: MK062) and from Sekisui XenoTech (Kansas City, USA; P2000, Lot: 1210334). The liver microsomes were diluted in an NADPH regenerating system (NRS).
(§3) For the stability tests, 150 µM RD2 or L-RD2 was incubated in SGF, SIF, human plasma and human liver microsomes in triplicate at 37 °C with slight shaking for different time periods. To prevent microbial contaminations in long-term plasma incubations, 0.1% sodium azide was added to the solutions. Microsomal long-term activity was examined by incubating microsomes without peptide for up to 24 h and adding L-RD2 after 8 and 24 h. The ability to degrade L-RD2 served as indicator for their activity. For the comparison of RD2 metabolite profiles across species, 150 µM RD2 was incubated in human, rat and cynomolgus liver microsomes at 37 °C for 2 and 24 h. […]
as §1

A short description of series [3]: Stability in human plasma, RP-HPLC. The note with it: female, 37 °C. It counts as in vitro ADME. As for the experimental part:
as §2
(§4) For the stability tests, 150 µM RD2 or L-RD2 was incubated in SGF, SIF, human plasma and human liver microsomes in triplicate at 37 °C with slight shaking for different time periods. To prevent microbial contaminations in long-term plasma incubations, 0.1% sodium azide was added to the solutions. Microsomal long-term activity was examined by incubating microsomes without peptide for up to 24 h and adding L-RD2 after 8 and 24 h. The ability to degrade L-RD2 served as indicator for their activity. For the comparison of RD2 metabolite profiles across species, 150 µM RD2 was incubated in human, rat and cynomolgus liver microsomes at 37 °C for 2 and 24 h. The peptides were extracted by precipitating the proteins with trichloroacetic acid (TCA) and subsequent centrifugation, as described previously in Elfgen et al.[24]. Peptides immediately extracted from the media and precipitated media without peptides served as controls.
For sample analysis from stability tests (see 2.3), mobile phases were acetonitrile (A) and water (B) each supplemented with 0.15% trifluoroacetic acid (TFA) (v/v). The samples were measured isocratically at 10% solvent A for 30 min. This run conditions allowed us to detect smallest chemical changes including the differentiation between the original compound and a deamidated version (Fig. S1). RD2 and L-RD2 can potentially be deamidated at two sites, the C-terminus and the asparagine at position seven. Peak areas of the unmetabolized peptides after different incubation times were normalized to the peptides’ peak areas after direct extraction from the media. […] A chromatographic metabolite profile of L-RD2 in SIF was recorded with the same mobile phases but using a gradient from 0 to 30% solvent A in 30 min.

The nature of series [4]: Stability in human liver microsomes, RP-HPLC / UHPLC-ESI-QTOF-MS. It counts as in vitro ADME. The procedure: as §2, §4
For sample analysis from stability tests (see 2.3), mobile phases were acetonitrile (A) and water (B) each supplemented with 0.15% trifluoroacetic acid (TFA) (v/v). The samples were measured isocratically at 10% solvent A for 30 min. This run conditions allowed us to detect smallest chemical changes including the differentiation between the original compound and a deamidated version (Fig. S1). RD2 and L-RD2 can potentially be deamidated at two sites, the C-terminus and the asparagine at position seven. Peak areas of the unmetabolized peptides after different incubation times were normalized to the peptides’ peak areas after direct extraction from the media. […] A chromatographic metabolite profile of L-RD2 in SIF was recorded with the same mobile phases but using a gradient from 0 to 30% solvent A in 30 min. […]

A short description of series [5]: Comparison of RD2 metabolite profiles across species: human liver microsomes. Type of series: in vitro ADME. As for the experimental part:
as §2, §4
For the comparison of RD2 metabolite profiles across species (see 2.3), mobile phases were acetonitrile (A) and water (B) each supplemented with 0.1% TFA. The gradient ran from 0 to 100% solvent A and is described in detail in Table S1. The chromatographic RD2 metabolite profiles were screened for potential human-specific metabolites. RD2 and the major RD2 metabolite present after 24 h of incubation in human liver microsome batches 7 and 8, HSM-3, were purified by RP-HPLC. Mobile phases were acetonitrile (A) and water (B) each supplemented with 0.15% TFA. The samples were separated isocratically at 10% solvent A for 30 min. RD2 as well as HSM-3 were collected and the samples were freeze-dried subsequently. The amount of the purified HSM-3 was calculated based on a calibration curve of 10 to 100 µM RD2 extracted from human liver microsomes.
A general note: Liver microsomes are vesicles of endoplasmic reticulum, rich in cytochrome P450 enzymes.

The nature of series [6]: Comparison of RD2 metabolite profiles across species: rat liver microsomes. It counts as in vitro ADME. As for the experimental part:
as §2, §3
(§5) For the comparison of RD2 metabolite profiles across species (see 2.3), mobile phases were acetonitrile (A) and water (B) each supplemented with 0.1% TFA. […] The amount of the purified HSM-3 was calculated based on a calibration curve of 10 to 100 µM RD2 extracted from human liver microsomes.

Series [7] is described as follows: Comparison of RD2 metabolite profiles across species: cynomolgus liver microsomes. Type of series: in vitro ADME, cynomolgus monkey. The procedure:
as §2, §3, §5

The test system of another series is rat. The arrangement: method as in complete study will be published elsewhere. The note with it: oral, up to high doses, ref complete study will be published elsewhere; cited from earlier work.
The next series addresses T1, CYP1A (Homo sapiens, UniProt P05177).
T1 sequence (P05177 2-516): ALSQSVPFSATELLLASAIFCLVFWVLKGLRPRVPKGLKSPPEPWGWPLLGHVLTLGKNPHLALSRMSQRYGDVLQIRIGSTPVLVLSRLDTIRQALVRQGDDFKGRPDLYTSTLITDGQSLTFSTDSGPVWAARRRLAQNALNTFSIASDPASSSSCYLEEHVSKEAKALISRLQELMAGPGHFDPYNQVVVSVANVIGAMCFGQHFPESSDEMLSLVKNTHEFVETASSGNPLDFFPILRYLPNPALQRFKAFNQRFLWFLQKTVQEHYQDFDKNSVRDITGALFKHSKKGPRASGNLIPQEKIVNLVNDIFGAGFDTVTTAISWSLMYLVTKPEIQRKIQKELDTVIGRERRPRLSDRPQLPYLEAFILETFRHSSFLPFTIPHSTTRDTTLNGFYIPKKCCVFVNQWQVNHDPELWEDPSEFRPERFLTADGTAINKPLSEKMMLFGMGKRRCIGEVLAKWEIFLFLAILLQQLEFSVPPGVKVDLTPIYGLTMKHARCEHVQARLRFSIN
Briefly: CYP isoform inhibition in human liver microsomes (Cyprotex).

Description for CYP1A: The experiments were performed by Cyprotex. […] The reactions were terminated by methanol and the generated metabolites were monitored by LC-MS/MS or fluorescence. […] All assays were performed sevenfold. […] For all other substrates, the termination plates were centrifuged at 2,500 rpm and 4 °C for 30 min and aliquots of the supernatants were combined and transferred to fresh 96-well plates. Formic acid in deionized water (final concentration 0.1%) containing internal standard was added to the supernatants prior to cassette analysis by LC-MS/MS. A decrease in the formation of the metabolite compared to the vehicle control was used to calculate the IC50 values.

With `CC(C)C[C@@H](NC(=O)[C@H](NC(=O)[C@H]1CCCN1)[C@H](C)O)C(=O)N[C@H](Cc1c[nH]cn1)C(=O)N[C@@H](C(=O)N[C@H](Cc1c[nH]cn1)C(=O)N[C@H](CC(N)=O)C(=O)N[C@H](CCCNC(=N)N)C(=O)N[C@H](CCCNC(=N)N)C(=O)N[C@H](CCCNC(=N)N)C(=O)N[C@H](CCCNC(=N)N)C(=O)N[C@H](CCCNC(=N)N)C(N)=O)[C@H](C)O` [RD2, ptlhthnrrrrr] (H-[dP][dT][dL][dH][dT][dH][dN][dR][dR][dR][dR][dR]-NH2), in series [1], the amount remaining at 24 h, 150 µM is no less than 97%. Also, in series [2], the share remaining at 24 h, 150 µM is no less than 97%. Further, the metabolised at 480 h, 150 µM in series [3] (150 µM, within 20 days, read-out: peptide degraded) turned out to be 87 ± 3%. Besides, in [3] (read-out: half-life (first order kinetics fit) (converted)), the half-life at 150 µM was 9 days. The peptide metabolized in series [4] (150 µM, 37 °C, within 24 h) worked out at 33 ± 3%. For the same molecule, in [4] (UHPLC-ESI-QTOF-MS), the “deamidation in human liver microsomes” value is reported as “not deamidated”. For the same molecule, the “metabolization of RD2 after 2 h” value in series [5] (human samples 1–6, 150 µM, 2 h) was “unmetabolized”. In addition, the “decrease of the intensity of the RD2 peak” value in [5] (human samples 1–6, 24 h) stood at 21 ± 7%. In series [6] (Sprague Dawley, pooled rat liver microsomes, rat samples, 24 h, read-out: decrease of the intensity of the RD2 peak), the metabolised at 24 h, 150 µM was determined as 17 ± 4%. Also, the “metabolization of RD2 after 2 h” value in [6] (rat liver microsomes, 150 µM, 2 h) was “unmetabolized”. The “metabolization of RD2 after 2 h” value in [7] (cynomolgus liver microsomes, 150 µM, 2 h) is listed as “unmetabolized”. Also, the metabolised at 24 h, 150 µM in series [7] (monkey, pooled cynomolgus monkey liver microsomes, cynomolgus samples, 24 h, read-out: decrease of the intensity of the RD2 peak) was 9 ± 2%. For the same molecule, in the series on rat, the “toxic effects of orally administered RD2” value is reported as “does not cause toxic effects up to high doses”. Also, the “inhibition of CYP1A” value on CYP1A (concentration range 0 to 25 µM) is given as “did not inhibit”. For the same molecule, at CYP1A (human, human liver microsomes), the inhibition at 0.25 µM is 6.18%, the inhibition at 1 µM came out at 9.42%, the inhibition at 2.5 µM is 1.34% and the inhibition at 10 µM was -0.842%. On CYP1A (human, human liver microsomes), the inhibition at 25 µM is -0.198%.
